According to US20050019746A1, “Apoptosis-related kinase/GPCRs” (EiRx Therapeutics Limited, priority 2003, published 2005):

Legend:
Format in all cases: cell-based, human
[1] = test system: A549 cells; assay: 10-14 day Clonagenicity Assay (MTT), A549; details: for percentage survival relative to the missense, n = 1: independent experiment n = 1, dilution point of maximum toxicity; for percentage survival relative to the missense, n = 2: independent experiment n = 2, dilution point of maximum toxicity; for percentage survival relative to the missense, n = 3: independent experiment n = 3, dilution point of maximum toxicity
How it was run: (§1)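 Extended-growth viability screen: siRNA transfected at 2 μg/ml into six serially diluted seed densities, quantified by MTT at 10-14 days. Hits needed significant loss versus missense (non-overlapping standard error bars) across two densities; maximum-toxicity point reported as mean % viability.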

[2] = test system: target gene mRNA in TF1 cells; assay: Knockdown by RNAi, QPCR, TF1 cells; details: 48 hrs post transfection, relative to missense control; for % Knockdown by RNAi, TF1 + GMCSF: TF1 with GM-CSF; for % Knockdown by RNAi, TF1 − GMCSF: TF1 without GM-CSF
Experimental: In the case of TF1 cells, 2×10^5 cells/ well are transfected with 2 μg of siRNA in each well of a 24 well plate using […] DMRIE-C reagent (InVitrogen) per ml of Optimem (Gibco). Cells are simultaneously transfected in parallel with a control missense siRNA. Recombinant GM-CSF at 2 ng/ml is added to the OPTI-MEM media during transfection. The transfection media is replaced after four hours with fresh RPMI 1640 containing […] GMSCF and 10% FCS and incubated at 37° C. Twenty-four hours post-transfection, the media are changed; RPMI 1640+10% FCS containing […] GMSCF is added to 3 wells and RPMI 1640+10% FCS without GMSCF is added to the other 3 wells. These cells are harvested 48 and 72 hours post transfection for QPCR and phenotypic assays. Control TF1 cells, which are not transfected, are similarly treated. Samples are labeled T48+G, T48−G, according to the time of harvesting post-transfection and the presence (+G) or absence (−G) of GM-CSF in the media. RNA is isolated, cDNA is reverse transcribed and QPCR is performed as described above. Short Term (72 hrs post transfection) Cell Viability/Apoptosis assays employed are discussed below.
After DMRIE transfections with siRNA Oligos against the apoptosis associated genes identified herein, or controls, cells are harvested at 24 or 48 hours post transfection as stated previously. RNA is then extracted using RNeasy Miniprep columns (Qiagen 74104) after lysis on KIAshredder columns (Qiagen 79654). RNA is quantified by spectrophotometric analysis and 1 μg is reverse transcribed into cDNA using SuperScriptII RNAseH-Reverse Transcriptase (Invitrogen 18064-014). The levels of transcript are compared by QPCR as described in detail in Example 3, relative to missense controls. QPCR primers are designed to amplify a PCR product of approximately 100 to 300 nucleotides in length from the CDS, following the guidelines outlined in the Quantitect SYBR Green PCR handbook from Qiagen.
Two template standards are used for quantitative PCR assessment of mRNA levels: • 1. A control RPS13 i.e. Ribosomal Protein Sub unit 13 (NM_001017) amplified PCR product diluted to [1000,100,10,1 and 0.1 fg] respectively, used to quantify the level of transcript; • 2. RPS13 amplified from sample templates as separate PCR reactions for normalisation purposes.
The cDNA templates from appropriate cell lines transfected with either gene specific, positive control e.g. Survivin or missense control siRNA are amplified with gene-specific QPCR primers using QuantiTectSYBR Green PCR kit (Qiagen 204143) on a DNA Engine Opticon System (MJ Research) (as described in detail in Example 3). The amplification conditions include a 95° C. step for 15 min for initial activation of HotStarTaq DNA polymerase, followed by 35 cycles of (15 s at 94° C., 30 s at 60° C., 30 s at 72°). The fluorescence of the samples at 521 nm is read between the annealing and extension steps of the protocol. The melting curves are calculated at the end of the 35 cycles and confirm product homogeneity.
A standard curve is plotted using the log [template quantity] of the RPS 13 control template dilutions (as above) versus cycle number at which the fluorescence intensity measured in the well exceeds the level specified in the cycle threshold parameters (the C(T) value). An estimate of the quantity of initial template in treatment samples is determined from this plot and the amount of target mRNA present in each sample is normalized across samples by calculating the ratio of target to RPS13 for each sample.
The normalised expression values are used to estimate percentage knockdown of target with reference to the control, transfected, cells (in this case cells transfected with missense siRNA).

[3] = test system: PC3 cells; assay: 10-14 day Clonagenicity Assay (MTT), PC3; details: for percentage survival relative to the missense, n = 1: independent experiment n = 1, dilution point of maximum toxicity; for percentage survival relative to the missense, n = 3: independent experiment n = 3, dilution point of maximum toxicity
How it was run: as §1

[4] = test system: HCT15 cells; assay: 10-14 day Clonagenicity Assay (MTT), HCT15; details: for percentage survival relative to the missense, n = 1: independent experiment n = 1, dilution point of maximum toxicity; for percentage survival relative to the missense, n = 2: independent experiment n = 2, dilution point of maximum toxicity
How it was run: as §1

siRNA EKI: siRNA duplex, sense GCACUGGAUCCAAAGCAUGtt, antisense CAUGCUUUGGAUCCAGUGCtt; same in Tables 9 and 11 (sense GCACUGGAUCCAAAGCAUGTT; antisense CAUGCUUUGGAUCCAGUGCTT; chemistry not given here)
percentage survival relative to the missense, n = 1 [1]: 27.1%
percentage survival relative to the missense, n = 2 [1]: 30.9%
percentage survival relative to the missense, n = 3 [1]: 49.1%
% Knockdown by RNAi, TF1 + GMCSF [2]: 46%
% Knockdown by RNAi, TF1 − GMCSF [2]: 58%
percentage survival relative to the missense, n = 1 [3]: 62%
percentage survival relative to the missense, n = 2 ([3]; independent experiment n = 2, dilution point of maximum toxicity): 40.4%
percentage survival relative to the missense, n = 3 [3]: 39.7%
percentage survival relative to the missense, n = 1 [4]: 63.5%
percentage survival relative to the missense, n = 2 [4]: 60.6%

siRNA GRAF: siRNA duplex, sense GCGGAAGUUUGCAGAUUCCtt, antisense GGAAUCUGCAAACUUCCGCtt; same in Tables 9 and 11 (sense GCGGAAGUUUGCAGAUUCCTT; antisense GGAAUCUGCAAACUUCCGCTT; chemistry not given here)
% Knockdown by RNAi, TF1 + GMCSF [2]: 56%
% Knockdown by RNAi, TF1 − GMCSF [2]: 73%

siRNA MAPKK5: sense GAGGACAGGUUAAGCUGUGtt, antisense CACAGCUUAACCUGUCCUCtt (sense GAGGACAGGUUAAGCUGUGTT; antisense CACAGCUUAACCUGUCCUCTT; chemistry not given here)
percentage survival relative to the missense, n = 1 [1]: 48.5%
% Knockdown by RNAi, TF1 − GMCSF [2]: 70%
percentage survival relative to the missense, n = 1 [3]: 30.5%
percentage survival relative to the missense, n = 3 [3]: 8.3%
percentage survival relative to the missense, n = 1 [4]: 65.3%
percentage survival relative to the missense, n = 2 [4]: 61.2%

siRNA MKNK: sense UACAUGGCCCCUGAGGUAGtt, antisense CUACCUCAGGGGCCAUGUAtt (sense UACAUGGCCCCUGAGGUAGTT; antisense CUACCUCAGGGGCCAUGUATT; chemistry not given here)
percentage survival relative to the missense, n = 1 [1]: 11.5%
percentage survival relative to the missense, n = 2 [1]: 67.9%
percentage survival relative to the missense, n = 3 [1]: 23.3%
% Knockdown by RNAi, TF1 + GMCSF [2]: 65%
percentage survival relative to the missense, n = 3 [3]: 8.4%
percentage survival relative to the missense, n = 1 [4]: 36%

siRNA P14KB: sense GCUACGGAAGCUGAUCCUCtt, antisense GAGGAUCAGCUUCCGUAGCtt (sense GCUACGGAAGCUGAUCCUCTT; antisense GAGGAUCAGCUUCCGUAGCTT; chemistry not given here)
percentage survival relative to the missense, n = 3 [1]: 63.4%
% Knockdown by RNAi, TF1 − GMCSF [2]: 40%
percentage survival relative to the missense, n = 3 [3]: 8.4%

siRNA PCTAIRE: sense GUCAGUGCCCACAAAGACUtt, antisense AGUCUUUGUGGGCACUGACtt (sense GUCAGUGCCCACAAAGACUTT; antisense AGUCUUUGUGGGCACUGACTT; chemistry not given here)
% Knockdown by RNAi, TF1 + GMCSF [2]: 20%
% Knockdown by RNAi, TF1 − GMCSF [2]: 70%

siRNA PSKH1: sense GAACCUGCACCGCUCCAUAtt, antisense UAUGGAGCGGUGCAGGUUCtt (sense GAACCUGCACCGCUCCAUATT; antisense UAUGGAGCGGUGCAGGUUCTT; chemistry not given here)
percentage survival relative to the missense, n = 1 [1]: 51.7%
% Knockdown by RNAi, TF1 − GMCSF [2]: 60%
percentage survival relative to the missense, n = 1 [3]: 29.8%
percentage survival relative to the missense, n = 1 [4]: 28.2%

siRNA Survivin: positive control siRNA, sense GAACUGGCCCUUCUUGGAGtt, antisense CUCCAAGAAGGGCCAGUUCtt (sense GAACUGGCCCUUCUUGGAGTT; antisense CUCCAAGAAGGGCCAGUUCTT; chemistry not given here) [reference compound]
percentage survival relative to the missense, n = 1 [1]: 28.5%
percentage survival relative to the missense, n = 2 [1]: 62.4%
percentage survival relative to the missense, n = 3 [1]: 67.3%
% Knockdown by RNAi, TF1 + GMCSF [2]: 20%
percentage survival relative to the missense, n = 1 [3]: 39.2%
percentage survival relative to the missense, n = 3 [3]: 83.6%
percentage survival relative to the missense, n = 1 [4]: 71.3%
percentage survival relative to the missense, n = 2 [4]: 44.5%
